Measured values published in patent US12612411B1, “Imidazopyrazine derivatives, process for preparation thereof, and their uses as luciferins” (INSTITUT PASTEUR, priority 2017, dated 2026).

Target: T1, nanoKAZ (Oplophorus gracilirostris, UniProt Q9GV45, A31E/A60N/A81I/F95D/I117V/K70R/L54V/L99Q/M102K/N193R/P142E/Q151K/Q38R/Q45L/V71I/Y165I)
T1 construct: luciferase catalytic domain (nanoKAZ, 19 kDa) from the Oplophorus-derived luciferase
Assay: Michaelis-Menten parameters of nanoKAZ from Lineweaver-Burk representation
Type: biochemical
Details: extrapolated from Lineweaver-Burk, constant enzyme concentration
Excerpt: The two dotted lines (linear regression) are converging to the same intercept with the x-axis (−1/Km) and different intercepts with the y-axis (1/Vmax). The equations of the two linear regressions are indicated and the corresponding correlation factors (R^2) with the experimental data are reported.
Considering the hypothesis of a Michaelis-Menten mechanism for the nanoKAZ, the Km and Vmax were extrapolated from the Lineweaver-Burk representation of the enzyme activity catalyzing either Q-1 or Q-3. […] The data have been fitted with linear regression with satisfying high correlation factors (R). The Km are the same for both substrates (Km=2 μM) whereas the Vmax is 3-times lower for Q-1 (0.6·10^6 RLU/sec) than for Q-3 (2.0·10^6 RLU/sec).

T1 sequence (Q9GV45 other isoform, or with tags, fused parts or gaps with the stated changes): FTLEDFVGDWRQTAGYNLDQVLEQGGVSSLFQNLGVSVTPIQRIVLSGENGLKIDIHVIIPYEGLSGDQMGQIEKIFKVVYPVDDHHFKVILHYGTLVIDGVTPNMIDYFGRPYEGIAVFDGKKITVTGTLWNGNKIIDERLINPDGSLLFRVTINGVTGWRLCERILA

Row | SMILES | Km
1 | O=c1c(Cc2ccco2)nc2c(Cc3ccccc3)[nH]c(-c3ccccc3)cn1-2 [Q-1, 8-benzyl-2-(furan-2-ylmethyl)-6-phenylimidazo[1,2-a]pyrazin-3(7H)-one, reference compound] | 2 µM
2 | Cc1ccc(Cc2nc3c(Cc4ccccc4)[nH]c(-c4ccccc4)cn-3c2=O)o1 [Q-3, 8-benzyl-2-((5-methylfuran-2-yl)methyl)-6-phenylimidazo[1,2-a]pyrazin-3(7H)-one] | 2 µM
